Test system: HeLa
Assay: Cytotoxicity against human HeLa cells
Format: functional, cell-based
Conditions: Homo sapiens, HeLa

Structure (SMILES) | IC50
CCOC(=O)C(C)CC(=O)C[C@@H](C)[C@H]1CC(=O)[C@@]2(C)C3=C(C(=O)[C@@H](OC(C)=O)[C@]12C)[C@@]1(C)CCC(=O)C(C)(C)[C@@H]1CC3=O (stereo partly drawn) | 11 µM
C/C(=C\CC[C@@H](C)[C@H]1CC[C@@]2(C)C3=C([C@@H](O)C[C@]12C)[C@@]1(C)CCC(=O)C(C)(C)[C@@H]1CC3=O)C(=O)O | 11 µM
C/C(=C\CC[C@@H](C)[C@H]1C[C@H](O)[C@@]2(C)C3=CC[C@H]4C(C)(C)C(=O)CC[C@]4(C)C3=CC[C@]12C)C(=O)O | 11 µM
C[C@H](CCC(=O)O)[C@H]1CC[C@@]2(C)C3=C(CC[C@]12C)[C@@]1(C)CCC(=O)C(C)(C)[C@@H]1CC3=O | 11 µM
C/C(=C\CC[C@@H](C)[C@H]1CC[C@@]2(C)C3=C(CC[C@]12C)[C@@]1(C)CC[C@H](O)C(C)(C)[C@@H]1CC3=O)C(=O)O | > 300 µM
C/C(=C\CC[C@@H](C)[C@H]1CC[C@@]2(C)C3=C([C@H](O)C[C@]12C)[C@@]1(C)CCC(=O)C(C)(C)[C@@H]1CC3=O)C(=O)O | 101 µM
COC(=O)C(C)CC(=O)C[C@@H](C)[C@H]1CC(=O)[C@@]2(C)C3=C(C(=O)[C@@H](OC(C)=O)[C@]12C)[C@@]1(C)CC[C@H](O)C(C)(C)[C@@H]1C[C@@H]3O (stereo partly drawn) | 101 µM
CC(=O)O[C@@H]1C(=O)C2=C([C@@H](O)C[C@H]3C(C)(C)[C@@H](O)CC[C@]23C)[C@]2(C)C(=O)C[C@H](/C(C)=C\C(=O)CC(C)C(=O)O)[C@@]12C (stereo partly drawn) | 101 µM
CC(CC(=O)C[C@@H](C)[C@H]1C[C@H](O)[C@@]2(C)C3=C(C(=O)C[C@]12C)[C@@]1(C)CC[C@H](O)C(C)(C)[C@@H]1C[C@@H]3O)C(=O)O (stereo partly drawn) | 101 µM
CC(=O)O[C@@H]1C(=O)C2=C([C@@H](O)C[C@H]3C(C)(C)C(=O)CC[C@]23C)[C@]2(C)C(=O)C[C@H](/C(C)=C\C(=O)CC(C)C(=O)O)[C@@]12C (stereo partly drawn) | > 300 µM
CC(CC(=O)C[C@@H](C)[C@H]1CC(=O)[C@@]2(C)C3=C(C(=O)[C@@H](O)[C@]12C)[C@@]1(C)CCC(=O)C(C)(C)[C@@H]1C[C@@H]3O)C(=O)O (stereo partly drawn) | > 300 µM
CC(CC(=O)C[C@@H](C)[C@H]1CC(=O)[C@@]2(C)C3=C(C(=O)[C@@H](O)[C@]12C)[C@@]1(C)CCC(=O)C(C)(C)[C@@H]1CC3=O)C(=O)O (stereo partly drawn) | > 300 µM
CC(=O)OC1C[C@H]([C@H](C)CC/C=C(/C)C(=O)O)[C@@]2(C)CC=C3C(=CC[C@H]4C(C)(C)C(=O)CC[C@]34C)[C@]12C (stereo partly drawn) | > 300 µM
C/C(=C\C(=O)CC(C)C(=O)O)[C@H]1C[C@H](O)[C@@]2(C)C3=C(C(=O)C[C@]12C)[C@@]1(C)CCC(=O)C(C)(C)[C@@H]1C[C@@H]3O (stereo partly drawn) [GANODERENIC ACID A] | > 300 µM
C/C(=C\C(=O)CC(C)C(=O)O)[C@H]1CC(=O)[C@@]2(C)C3=C(C(=O)C[C@]12C)[C@@]1(C)CC[C@H](O)C(C)(C)[C@@H]1C[C@@H]3O (stereo partly drawn) [GANODERENIC ACID B] | 202 µM
C/C(=C\C(=O)CC(C)C(=O)O)[C@H]1CC(=O)[C@@]2(C)C3=C(C(=O)C[C@]12C)[C@@]1(C)CCC(=O)C(C)(C)[C@@H]1CC3=O (stereo partly drawn) [GANODERENICACID F] | 202 µM
CC(CC(=O)C[C@@H](C)[C@H]1CC(=O)[C@@]2(C)C3=C(C(=O)C[C@]12C)[C@@]1(C)CC[C@H](O)C(C)(C)[C@@H]1CC3=O)C(=O)O (stereo partly drawn) [GANODERIC ACID AM1] | 202 µM
C[C@H](CC(=O)C[C@@H](C)[C@H]1C[C@H](O)[C@@]2(C)C3=C(C(=O)C[C@]12C)[C@@]1(C)CCC(=O)C(C)(C)[C@@H]1C[C@@H]3O)C(=O)O [GANODERIC ACID A] | > 300 µM
COC(=O)[C@H](C)CC(=O)C[C@@H](C)[C@H]1CC(=O)[C@@]2(C)C3=C(C(=O)C[C@]12C)[C@@]1(C)CC[C@H](O)C(C)(C)[C@@H]1C[C@@H]3O [GANODERIC ACID B METHYL ESTER] | 101 µM
CC(CC(=O)C[C@@H](C)[C@H]1CC(=O)[C@@]2(C)C3=C(C(=O)C[C@]12C)[C@@]1(C)CC[C@H](O)C(C)(C)[C@@H]1C[C@@H]3O)C(=O)O (stereo partly drawn) [GANODERIC ACID B] | 202 µM
C[C@H](CC(=O)C[C@@H](C)[C@H]1CC(=O)[C@@]2(C)C3=C(C(=O)C[C@]12C)[C@@]1(C)CCC(=O)C(C)(C)[C@@H]1CC3=O)C(=O)O [GANODERIC ACID E] | 101 µM
CC(=O)O[C@@H]1C(=O)C2=C(C(=O)C[C@H]3C(C)(C)C(=O)CC[C@]23C)[C@]2(C)C(=O)C[C@H]([C@H](C)CC(=O)CC(C)C(=O)O)[C@@]12C (stereo partly drawn) [GANODERIC ACID F] | > 300 µM
CC(CC(=O)C[C@@H](C)[C@H]1CC(=O)[C@@]2(C)C3=C(C(=O)[C@@H](O)[C@]12C)[C@@]1(C)CC[C@H](O)C(C)(C)[C@@H]1C[C@@H]3O)C(=O)O (stereo partly drawn) [GANODERIC ACID G] | 101 µM
